This assay has as its target T1, KCNQ 2/3 channels (HEK293 cells stably expressing human KCNQ2 and KCNQ3 subunits) (Homo sapiens, UniProt O43525+O43526).
T1 construct: expressed in transfected cells; host or cells: HEK293
Put plainly: KCNQ2/3 channel activation, thallium flux FLIPR assay with BTC-AM dye. To be noted: for Emax: HEK293, maximum response relative to the response produced by 10 μM retigabine (set at 100%), read-out: Max. %; for EC50: HEK293 cells expressing human KCNQ2 and KCNQ3, thallium flux, FLIPR. The class given is cell-based. In a few lines:
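HEK293 cells stably expressing human KCNQ2/KCNQ3 were loaded with BTC-AM (3 μg/mL, 2 h, RT) and preincubated with compound for 4 min in pH 7.3 gluconate buffer containing 0.1 mM ouabain. Flux was triggered by 6 mM TlNO3/10 mM K2SO4 and read for 3 min; EC50 came from summed responses over basal, with maximum relative to 10 μM retigabine (100%).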

The structures appear in SMILES notation.

In the case of `COc1ccc(-c2nn(NC(=O)Cc3cc(F)cc(F)c3)c(=O)c3ccccc23)cc1` [Example 153, 2-(3,5-difluorophenyl)-N-[4-(4-methoxyphenyl)-1-oxophthalazin-2(1H)-yl]acetamide], the Emax turned out to be 143% and the EC50 lay within 500 to 1000 nM.
On to `O=C(CC12CC3CC(CC(C3)C1)C2)Nn1nc(-c2ccc(Cl)cc2)c2ccccc2c1=O` [Example 116, 2-(adamantan-1-yl)-N-[4-(4-chlorophenyl)-1-oxophthalazin-2(1H)-yl]acetamide], for which the Emax was 132% and the EC50 is below 100 nM.
On to `O=C(Cc1cc(F)cc(F)c1)Nn1nc(-c2ccc(Cl)cc2)c2ccccc2c1=O` [Example 118, N-[4-(4-chlorophenyl)-1-oxophthalazin-2(1H)-yl]-2-(3,5-difluorophenyl)acetamide], for which the Emax came out at 128% and the EC50 is below 100 nM.
In the case of `O=C(CC1CC2CCC1C2)Nn1nc(C2CCCC2)c2ccccc2c1=O` (racemic) [Example 71, (±)-2-(exo-bicyclo[2.2.1]heptan-2-yl)-N-(4-cyclopentyl-1-oxophthalazin-2(1H)-yl)acetamide], the Emax came to 162% and the half-maximal effective concentration (EC50) was below 100 nM.
With `O=C(CC1CCCC1)Nn1nc(C(F)(F)F)c2ccccc2c1=O` [Example 43, 2-cyclopentyl-N-[1-oxo-4-(trifluoromethyl)phthalazin-2(1H)-yl]acetamide], the Emax was found to be 112% and the EC50 lay within 100 to 500 nM.
The like results for `O=C(C[C@H]1C[C@@H]2CC[C@H]1C2)Nn1nc(-c2ccc(Br)cc2)c2ccccc2c1=O` (racemic) [Example 84, (±)-2-(exo-bicyclo[2.2.1]heptan-2-yl)-N-[4-(4-bromophenyl)-1-oxophthalazin-2(1H)-yl]acetamide] were, in that order, 134% and below 100 nM.
For the compound `CC(C)(C)CC(=O)Nn1nc(C(F)(F)F)c2ccccc2c1=O` [Example 48, 3,3-dimethyl-N-[1-oxo-4-(trifluoromethyl)phthalazin-2(1H)-yl]butanamide], the Emax is 77% and the EC50 was 1000 to 10000 nM.
`COc1ccc(-c2nn(NC(=O)CC34CC5CC(CC(C5)C3)C4)c(=O)c3ccccc23)cc1` [Example 154, 2-(adamantan-1-yl)-N-[4-(4-methoxyphenyl)-1-oxophthalazin-2(1H)-yl]acetamide]: the Emax was determined as 136% and the concentration giving a half-maximal response (EC50) was below 100 nM.
Take `O=C(Cc1ccc(Cl)cc1)Nn1nc(Cc2ccccc2)c2ccccc2c1=O` [Example 142, N-(4-benzyl-1-oxophthalazin-2(1H)-yl)-2-(4-chlorophenyl)acetamide]: the Emax turned out to be 109% and the concentration for a half-maximal effect (EC50) was below 100 nM.
As for `CC1(CC(=O)Nn2nc(-c3ccc(Cl)cc3)c3ccccc3c2=O)CCCC1` [Example 86, N-[4-(4-chlorophenyl)-1-oxophthalazin-2(1H)-yl]-2-(1-methylcyclopentyl)acetamide], the Emax was 166% and the concentration for a half-maximal effect (EC50) was below 100 nM.
Taken in the same sequence, the figures for `O=C(CC12CC3CC(CC(C3)C1)C2)Nn1nc(-c2ccccc2)c2c(F)ccc(F)c2c1=O` [Example 15, 2-(1-adamantyl)-N-(5,8-difluoro-1-oxo-4-phenylphthalazin-2(1H)-yl)acetamide] were 140% and below 100 nM.
For the compound `O=C(Cc1cc(F)cc(F)c1)Nn1nc(-c2ccc(F)cc2)c2ccccc2c1=O` [Example 133, 2-(3,5-difluorophenyl)-N-[4-(4-fluorophenyl)-1-oxophthalazin-2(1H)-yl]acetamide], the Emax amounted to 144% and the half-maximal effective concentration (EC50) fell in the range of 100 to 500 nM.
As for `O=C(Cc1cccs1)Nn1nc(C(F)(F)F)c2ccccc2c1=O` [Example 54, N-[1-oxo-4-(trifluoromethyl)phthalazin-2(1H)-yl]-2-(2-thienyl)acetamide], the Emax amounted to 84% and the EC50 was 1000 to 10000 nM.
Turning to `O=C(Cc1cccc(F)c1F)Nn1nc(-c2ccccc2)c2ccccc2c1=O` [Example 25, 2-(2,3-difluorophenyl)-N-(1-oxo-4-phenylphthalazin-2(1H)-yl)acetamide], the Emax was 139% and the 50% effective concentration (EC50) is 1000 to 10000 nM.
With `O=C(CC12CC3CC(CC(Br)(C3)C1)C2)Nn1nc(-c2ccccc2)c2ccsc2c1=O` [Example 178, 2-(3-bromoadamantan-1-yl)-N-(7-oxo-4-phenylthieno[2,3-d]pyridazin-6(7H)-yl)acetamide], the Emax stood at 56% and the EC50 is above 10000 nM.
Take `O=C(Cc1ccc(Cl)cc1)Nn1nc(-c2ccccc2)c2c(F)ccc(F)c2c1=O` [Example 16, 2-(4-chlorophenyl)-N-(5,8-difluoro-1-oxo-4-phenylphthalazin-2(1H)-yl)acetamide]: the Emax came to 175% and the EC50 lay within 100 to 500 nM.
For the compound `O=C(CCC(F)(F)F)Nn1nc(-c2ccc(Cl)cc2)c2ccccc2c1=O` [Example 123, N-[4-(4-chlorophenyl)-1-oxophthalazin-2(1H)-yl]-4,4,4-trifluorobutanamide], the Emax is 48% and the 50% effective concentration (EC50) was 500 to 1000 nM.
For `O=C(Cc1cccnc1)Nn1nc(-c2ccc(Cl)cc2)c2ccccc2c1=O` [Example 93, N-[4-(4-chlorophenyl)-1-oxophthalazin-2(1H)-yl]-2-(pyridin-3-yl)acetamide], the Emax turned out to be 149% and the concentration giving a half-maximal response (EC50) is 1000 to 10000 nM.
`O=C(Cc1ccc(Br)cc1)Nn1nc(-c2ccc(Cl)cc2)c2ccccc2c1=O` [Example 102, 2-(4-bromophenyl)-N-[4-(4-chlorophenyl)-1-oxophthalazin-2(1H)-yl]acetamide]: the Emax is 112% and the EC50 was in the range of 500 to 1000 nM.
`O=C(Cc1ccc(F)cc1)Nn1nc(-c2ccccc2)c2c(F)ccc(F)c2c1=O` [Example 14, N-(5,8-difluoro-1-oxo-4-phenylphthalazin-2(1H)-yl)-2-(4-fluorophenyl)acetamide]: the Emax was 171% and the EC50 lay within 100 to 500 nM.
The like results for `O=C(Cc1ccc(Cl)cc1)Nn1nc(-c2ccccc2)c2cc(F)ccc2c1=O` [Example 36, 2-(4-chlorophenyl)-N-(6-fluoro-1-oxo-4-phenylphthalazin-2(1H)-yl)acetamide] were, in that order, 155% and 100 to 500 nM.
For `O=C(C[C@H]1C[C@@H]2CC[C@H]1C2)Nn1nc(C2(c3ccccc3)CC2)c2ccccc2c1=O` (racemic) [Example 172, (±)-2-(exo-bicyclo[2.2.1]hept-2-yl)-N-[1-oxo-4-(1-phenylcyclopropyl)phthalazin-2(1H)-yl]acetamide], the Emax turned out to be 195% and the EC50 is below 100 nM.
Regarding `Cc1ccc(-c2nn(NC(=O)CC34CC5CC(CC(C5)C3)C4)c(=O)c3ccccc23)cc1C` [Example 164, 2-(adamantan-1-yl)-N-[4-(3,4-dimethylphenyl)-1-oxophthalazin-2(1H)-yl]acetamide], the Emax stood at 155% and the concentration for a half-maximal effect (EC50) is below 100 nM.
As for `O=C(CC12CC3CC(CC(C3)C1)C2)Nn1nc(-c2ccccc2)c2c(c1=O)CCC2` [Example 189, 2-(adamantan-1-yl)-N-(1-oxo-4-phenyl-1,5,6,7-tetrahydro-2H-cyclopenta[d]pyridazin-2-yl)acetamide], the Emax is 152% and the half-maximal effective concentration (EC50) was in the range of 100 to 500 nM.
Consider `O=C(Cc1cc(F)cc(F)c1)Nn1nc(C2CCCC2)c2ccccc2c1=O` [Example 73, N-(4-cyclopentyl-1-oxophthalazin-2(1H)-yl)-2-(3,5-difluorophenyl)acetamide], for which the Emax was determined as 142% and the half-maximal effective concentration (EC50) is below 100 nM.
As to `O=C(Cc1ccc(F)cc1)Nn1nc(-c2ccccc2)c2ccccc2c1=O` [Example 26, 2-(4-fluorophenyl)-N-(1-oxo-4-phenylphthalazin-2(1H)-yl)acetamide], the Emax worked out at 157% and the EC50 lay in the range of 100 to 500 nM.
Turning to `O=C(CC12CC3CC(CC(O)(C3)C1)C2)Nn1nc(-c2ccccc2)c2ccsc2c1=O` [Example 180, 2-(3-hydroxyadamantan-1-yl)-N-(7-oxo-4-phenylthieno[2,3-d]pyridazin-6(7H)-yl)acetamide], the Emax is -3% and the EC50 was above 10000 nM.
Consider `Cc1nn(NC(=O)Cc2cc(F)cc(F)c2)c(=O)c2ccccc12` [Example 38, 2-(3,5-difluorophenyl)-N-(4-methyl-1-oxophthalazin-2(1H)-yl)acetamide], for which the Emax was found to be 126% and the EC50 is above 10000 nM.
Consider `O=C(Cc1cc(F)cc(F)c1)Nn1nc(-c2ccc(Cl)cc2)c2c(F)ccc(F)c2c1=O` [Example 181, N-[4-(4-chlorophenyl)-5,8-difluoro-1-oxophthalazin-2(1H)-yl]-2-(3,5-difluorophenyl)acetamide], for which the Emax came to 166% and the EC50 was in the range of 100 to 500 nM.
Take `CC(C)(C)c1nn(NC(=O)CC(C)(C)c2ccccc2)c(=O)c2ccccc12` [Example 64, N-(4-tert-butyl-1-oxophthalazin-2(1H)-yl)-3-methyl-3-phenylbutanamide]: the Emax turned out to be 157% and the EC50 was below 100 nM.
Take `CC(C)c1ccc(-c2nn(NC(=O)Cc3ccc(Cl)cc3)c(=O)c3ccccc23)cc1` [Example 170, 2-(4-chlorophenyl)-N-[4-(4-isopropylphenyl)-1-oxophthalazin-2(1H)-yl]acetamide]: the Emax came to 104% and the EC50 was in the range of 500 to 1000 nM.
For the compound `CC(C)c1nn(NC(=O)CC23CC4CC(C)(CC(C)(C4)C2)C3)c(=O)c2ccccc12` [Example 34, 2-[3,5-dimethyl-1-adamantyl]-N-(4-isopropyl-1-oxophthalazin-2(1H)-yl)acetamide], the Emax stood at 184% and the EC50 was in the range of 100 to 500 nM.
Taken in the same sequence, the figures for `O=C(Nn1nc(-c2ccc(Cl)cc2)c2ccccc2c1=O)[C@@H]1C[C@H]1c1ccccc1` (relative stereo) [Example 120, trans-N-[4-(4-chlorophenyl)-1-oxophthalazin-2(1H)-yl]-2-phenylcyclopropanecarboxamide] were 103% and 500 to 1000 nM.

The EC50 is the midpoint of the concentration-response curve. Low values mean greater potency, high ones weaker potency.

For the origin of these results see patent US8629143B2, “Potassium channel modulators” (AbbVie Inc., priority 2009, dated 2014).
